# Experimental data: ChEMBL document CHEMBL3638792, “Indazoles” (2014)
# Experiments:
# [1] = biological target: T1, Tyrosine-protein kinase JAK3 (Homo sapiens, UniProt P52333); assay: High ATP Caliper Endpoint Assay: JAK3 enzyme (Invitrogen) stock solution is made up at 4.1 uM in sterile water. JAK3 enzyme stock is diluted to 2 nM in assay buffer (10 mM HEPES free acid pH 7.5, 10 mM HEPES free base pH 7.5, 10 mM MgCL2, 0.0005% Tween-20, 0.01% BSA) containing 2 mM DTT (all supplied by Sigma). ATP is made up at 10 mM stock in sterile water and diluted to 800 uM in assay buffer. …
# T1 sequence (P52333 whole entry): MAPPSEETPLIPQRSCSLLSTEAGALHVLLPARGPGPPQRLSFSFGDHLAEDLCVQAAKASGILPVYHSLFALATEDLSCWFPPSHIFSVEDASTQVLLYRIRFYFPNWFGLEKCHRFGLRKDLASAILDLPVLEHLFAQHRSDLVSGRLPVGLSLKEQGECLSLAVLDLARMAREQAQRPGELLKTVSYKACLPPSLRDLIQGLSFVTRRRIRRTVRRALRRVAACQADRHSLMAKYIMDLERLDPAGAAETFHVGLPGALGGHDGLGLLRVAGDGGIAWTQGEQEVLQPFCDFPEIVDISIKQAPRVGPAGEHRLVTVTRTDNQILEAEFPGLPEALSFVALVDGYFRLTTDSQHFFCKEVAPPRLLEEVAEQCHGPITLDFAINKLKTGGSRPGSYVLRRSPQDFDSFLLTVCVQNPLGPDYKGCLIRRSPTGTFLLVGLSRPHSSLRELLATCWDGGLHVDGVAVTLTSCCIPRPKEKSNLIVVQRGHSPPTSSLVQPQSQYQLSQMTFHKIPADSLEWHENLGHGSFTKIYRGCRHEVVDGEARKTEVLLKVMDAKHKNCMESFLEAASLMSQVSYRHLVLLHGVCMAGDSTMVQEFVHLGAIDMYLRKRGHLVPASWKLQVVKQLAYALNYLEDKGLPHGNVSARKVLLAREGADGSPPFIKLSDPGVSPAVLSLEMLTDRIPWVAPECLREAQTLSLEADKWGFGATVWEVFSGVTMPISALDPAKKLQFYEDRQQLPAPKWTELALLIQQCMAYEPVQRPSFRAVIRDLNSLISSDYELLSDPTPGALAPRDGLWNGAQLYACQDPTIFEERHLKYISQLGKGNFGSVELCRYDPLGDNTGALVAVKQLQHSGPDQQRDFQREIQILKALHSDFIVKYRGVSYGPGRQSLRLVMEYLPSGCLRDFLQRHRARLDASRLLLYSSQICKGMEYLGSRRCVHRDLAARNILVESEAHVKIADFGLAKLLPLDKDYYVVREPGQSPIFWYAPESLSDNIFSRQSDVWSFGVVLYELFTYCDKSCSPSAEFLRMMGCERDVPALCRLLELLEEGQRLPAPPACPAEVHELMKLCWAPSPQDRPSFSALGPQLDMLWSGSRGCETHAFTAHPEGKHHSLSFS
# [2] = biological target: Tyrosine-protein kinase JAK1 (Homo sapiens, UniProt P23458); assay: High ATP Caliper Endpoint Assay: JAK1 enzyme (Invitrogen) stock solution is made up at 5.2 uM in sterile water. JAK1 enzyme stock is diluted to 20 nM in assay buffer (10 mM HEPES free acid pH 7.5, 10 mM HEPES free base pH 7.5, 10 mM MgCL2, 0.0005% Tween-20, 0.01% BSA) containing 2 mM DTT (all supplied by Sigma) with the addition of one protease tablet per 25 mls buffer (Roche). ATP is made up at 10 mM stock in sterile water and diluted to 5 mM in assay buffer. Peptide H236 (Caliper Life Sciences) is made up at 1.5 mM in 100% DMSO and diluted to 3 uM in assay buffer. Stop buffer comprises 140 mM HEPES, 22.5 mM EDTA (Sigma) and 0.15% coating reagent (Caliper Life Sciences).Assays are performed in Greiner polypropylene 384 well plates. Following compound preparation within the plate 10 ul of enzyme in assay buffer containing DTT is added using a Multidrop Micro. Final assay concentration of enzyme is 10 nM. Compound and enzyme are pre-incubated for 30 minutes at room temperature.
# Sequence of Tyrosine-protein kinase JAK1 (P23458 whole entry): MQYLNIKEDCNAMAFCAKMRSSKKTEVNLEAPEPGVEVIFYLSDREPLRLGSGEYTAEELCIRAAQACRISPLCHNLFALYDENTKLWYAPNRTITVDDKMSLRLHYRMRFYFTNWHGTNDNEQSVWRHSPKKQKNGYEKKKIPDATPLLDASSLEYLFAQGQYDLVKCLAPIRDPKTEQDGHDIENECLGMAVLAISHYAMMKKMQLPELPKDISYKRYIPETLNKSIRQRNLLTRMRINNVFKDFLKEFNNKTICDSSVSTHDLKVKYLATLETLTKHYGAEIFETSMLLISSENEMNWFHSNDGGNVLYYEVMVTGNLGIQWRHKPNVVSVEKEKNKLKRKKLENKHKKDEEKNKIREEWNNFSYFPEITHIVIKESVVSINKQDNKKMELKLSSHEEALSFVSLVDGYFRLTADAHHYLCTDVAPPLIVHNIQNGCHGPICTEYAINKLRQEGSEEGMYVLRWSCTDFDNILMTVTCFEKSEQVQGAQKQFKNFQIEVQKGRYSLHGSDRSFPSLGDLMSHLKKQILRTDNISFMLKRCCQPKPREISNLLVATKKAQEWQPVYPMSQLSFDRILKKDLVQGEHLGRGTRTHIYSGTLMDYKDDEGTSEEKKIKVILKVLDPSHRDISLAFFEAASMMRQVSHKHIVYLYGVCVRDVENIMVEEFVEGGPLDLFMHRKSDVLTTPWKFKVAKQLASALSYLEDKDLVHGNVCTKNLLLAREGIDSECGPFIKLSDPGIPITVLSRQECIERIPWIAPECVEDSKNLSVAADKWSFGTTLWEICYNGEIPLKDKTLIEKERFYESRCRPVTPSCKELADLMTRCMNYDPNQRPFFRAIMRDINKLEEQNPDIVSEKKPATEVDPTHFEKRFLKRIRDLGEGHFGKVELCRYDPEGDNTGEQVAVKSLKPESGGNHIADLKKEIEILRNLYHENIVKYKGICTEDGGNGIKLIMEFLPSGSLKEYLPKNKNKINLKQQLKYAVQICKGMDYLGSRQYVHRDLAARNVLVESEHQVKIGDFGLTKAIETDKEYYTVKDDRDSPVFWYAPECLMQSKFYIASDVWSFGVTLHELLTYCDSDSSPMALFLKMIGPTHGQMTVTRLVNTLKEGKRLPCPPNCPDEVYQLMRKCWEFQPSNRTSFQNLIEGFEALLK
SMILES,IC50 [1] [nM],IC50 [2] [nM]
CCc1cc(O)c(F)cc1-c1ccc2c(-c3nc4c([nH]3)CCN(Cc3ccc5ncccc5c3)C4)n[nH]c2c1,1.4,4.2
CCc1cc(O)c(F)cc1-c1ccc2c(-c3nc4c([nH]3)CCN(C(=O)c3ccc(C#N)nc3)CC4)n[nH]c2c1,1.4,3.4
